From patent US5416118A, “Bicyclic amides as inhibitors of acyl-coenzyme A: cholesterol acyl transferase” (Schering Corporation, priority 1993, dated 1995) come the findings set out here.

In test [1] the test system is ACAT. The test is described as follows: ACAT Assay (in vitro). The note with it: dose = 10 μM; rat liver microsomes. In kind it is biochemical. The method, then:
This assay measures the activity of ACAT by measuring the ACAT-mediated transfer of tritiated oleic acid from acyl-CoA to cholesterol to give labelled cholesterol oleate. Rat liver microsomes are used as the source of ACAT. Assays are performed in round bottom microtiterplates using a total incubation volume of 50 μL. Each incubation well receives 10 μL assay buffer (0.5M KHPO4, 10 μM dithiothreitol, pH 7.4), 7.5 μL of 40 mg/mL BSA (Bovine Serum Albumin) and 12.5 μg of microsomal protein. The test compound (in sufficient amount to bring the final concentration to from 0.1 to 25 μM), reference compound, or vehicle control is added and the final volume brought to 47 μL. The microtiterplate is then floated on the surface of a 37° C. water bath for fifteen minutes. Incubations are started by the addition of 3 μL ^3 H-acyl CoA (1 μCi/well, final concentration of 10 μM acyl CoA). The plate is then returned to the water bath for 15 minutes. The incubations are then terminated by application of 15 μL from each incubation to individual lanes on a thin layer plate (Silica Gel GF 20×20 cm). Standards are applied to several lanes so that the cholesterol ester band can be identified. After drying, the plates are eluted with 90:10:1 petroleum ether:ether:HOAc. The standards are visualized via iodine vapor, and the regions corresponding to cholesterol ester are scraped into 7 mL scintillation vials. 4 mL of scintillant are added to each vial, and the radioactivity quantified. Background count is determined by the boiled controls. Full activity is determined by activity in the presence of vehicle. The percent inhibition is calculated by subtracting the background from both control and test samples, and the test value is calculated as a percentage of the control. For IC50 determinations, the inhibition is plotted against drug doses on a log scale and the concentration at which 50% inhibition is obtained is determined.
(§1) Using the assay methods described above, the compounds of Examples 1-9 were tested for in vitro ACAT inhibitory activity and for the ability to lower the level of cholesteryl esters in vivo.
Background: Liver microsomes are a subcellular fraction often used to study metabolism.

The test system of test [2] is cholesteryl esters. The test is described as follows: In Vivo Assay of Hypolipidemic Agents Using the Hyperlipidemic Hamster. As to conditions: Mesocricetus auratus, po, 168 h, oral gavage once daily, 7 days, versus control, read-out: % Reduction in cholesteryl esters; for change in vivo at 100 mg/kg: 100 mpk; for change in vivo at 25 mg/kg: 25 mpk; for change in vivo at 50 mg/kg: 50 mpk; for change in vivo at 10 mg/kg: 10 mpk. How it is done: In Vivo Assay of Hypolipidemic Agents Using the Hyperlipidemic Hamster
Hamsters are separated into groups of six and given a control cholesterol diet (Pudna Chow #5001 containing 0.5% cholesterol) for seven days. Diet consumption is monitored to determine dietary cholesterol exposure in the face of test compounds. The animals are dosed with the test compound once daily beginning with the initiation of diet. Dosing is by oral gavage of 0.2 mL of corn oil alone (control group) or solution (or suspension) of test compound in corn oil. All animals moribund or in poor physical condition are euthanized. After seven days, the animals are anesthetized by […] of ketamine and sacrificed by decapitation. Blood is collected into vacutainer tubes containing EDTA for plasma lipid analysis and the liver excised for tissue lipid analysis. Data is reported as percent reduction of lipid versus control.
as §1

As to `CCCCCCCC/C=C\CCCCCCCC(=O)N[C@H]1c2ccccc2CC[C@H]1c1ccc(OC)cc1` (relative stereo) [Example 2G], the “ACAT % Inhibition” value in test [1] is given as 73%. The change in vivo at 100 mg/kg in test [2] worked out at 0%.

As to `CCCCCCCC/C=C\CCCCCCCC(=O)N[C@H]1c2ccccc2CC[C@@H]1c1ccc(OC)cc1` (relative stereo) [Example 2H], the “ACAT % Inhibition” value in test [1] was 81%. Moreover, the change in vivo at 100 mg/kg in test [2] was 0%.

Turning to `COc1ccc2c(c1)C[C@H](c1ccccc1)[C@H]2NC(=O)C(c1ccccc1)c1ccccc1` (relative stereo) [Example 2K], the “ACAT % Inhibition” value in test [1] is given as 90%. In addition, the change in vivo at 25 mg/kg in test [2] is 17%.

Consider `CCCCCCCC/C=C\CCCCCCCC(=O)N[C@H]1c2ccccc2CC[C@@H]1c1ccccc1` (relative stereo) [Example 2M], for which the “ACAT % Inhibition” value in test [1] is 99%. Moreover, the change in vivo at 100 mg/kg in test [2] turned out to be 0%.

For `CCCCCCCC/C=C\CCCCCCCC(=O)N[C@H]1c2ccccc2OC[C@H]1c1ccccc1` (relative stereo) [Example 2N], the “ACAT % Inhibition” value in test [1] came out at 85%. In addition, the change in vivo at 100 mg/kg in test [2] was 0%.

For the compound `COc1ccc2c(c1)C[C@@H](c1ccccc1)[C@H]2NC(=O)C(c1ccccc1)c1ccccc1` (relative stereo) [Example 2R], in test [1], the “ACAT % Inhibition” value is 75%. Also, the change in vivo at 50 mg/kg in test [2] is 0%.

For the compound `O=C(N[C@H]1c2ccccc2C[C@H]1c1ccccc1)C(c1ccccc1)c1ccccc1` (relative stereo) [Example 2S], the “ACAT % Inhibition” value in test [1] was 83%. Also, in test [2], the change in vivo at 50 mg/kg came out at 16%.

`O=C(N[C@H]1c2ccccc2C[C@H]1c1ccc(O)cc1)C(c1ccccc1)c1ccccc1` (relative stereo) [Example 3, cis-N-[2-(4'-hydroxyphenyl)indanyl]-αphenylbenzeneacetamide]: the “ACAT % Inhibition” value in test [1] is 99%. In test [2], the change in vivo at 10 mg/kg is -71%, the change in vivo at 25 mg/kg is -87.5% and the change in vivo at 50 mg/kg was -89%.

Turning to `O=C(N[C@@H]1c2ccccc2C[C@@H]1c1cccc(O)c1)C(c1ccccc1)c1ccccc1` (relative stereo) [Example 3B], the “ACAT % Inhibition” value in test [1] was determined as 97%. Also, the change in vivo at 50 mg/kg in test [2] was found to be 0%.

As to `O=C(N[C@@H]1c2ccccc2CC[C@@H]1c1cccc(O)c1)C(c1ccccc1)c1ccccc1` (relative stereo) [Example 3C], the “ACAT % Inhibition” value in test [1] is recorded as 77%. Further, the change in vivo at 50 mg/kg in test [2] came to 0%.

On to `O=C(N[C@@H]1c2ccccc2CC[C@H]1c1cccc(O)c1)C(c1ccccc1)c1ccccc1` (relative stereo) [Example 3D], for which the “ACAT % Inhibition” value in test [1] came to 98%. Further, the change in vivo at 50 mg/kg in test [2] is 0%.

Turning to `O=C(N[C@@H]1c2ccccc2C[C@H]1c1ccc(O)cc1)C(c1ccccc1)c1ccccc1` (relative stereo) [Example 3E], the “ACAT % Inhibition” value in test [1] was 99%. In addition, in test [2], the change in vivo at 50 mg/kg was -52%.

With `O=C(N[C@@H]1c2ccccc2CC[C@@H]1c1ccc(O)cc1)C(c1ccccc1)c1ccccc1` (relative stereo) [Example 3F], in test [1], the “ACAT % Inhibition” value was 91%. Besides, the change in vivo at 50 mg/kg in test [2] was -16%.

Consider `O=C(N[C@@H]1c2ccccc2CC[C@H]1c1ccc(O)cc1)C(c1ccccc1)c1ccccc1` (relative stereo) [Example 3G], for which, in test [1], the “ACAT % Inhibition” value is recorded as 93%. In test [2], the change in vivo at 25 mg/kg was -43% and the change in vivo at 50 mg/kg was -57%.

In the case of `CCCCCCCCCC(C)(C)C(=O)N[C@@H]1c2ccccc2CC[C@H]1c1ccc(O)cc1` (relative stereo) [Example 3H], in test [1], the “ACAT % Inhibition” value turned out to be 86%. Besides, the change in vivo at 50 mg/kg in test [2] stood at 0%.

As to `O=C(N[C@@H]1c2ccccc2CC[C@H]1c1ccc(O)cc1)N(c1ccccc1)c1ccccc1` (relative stereo) [Example 3I], the “ACAT % Inhibition” value in test [1] stood at 99%. Also, the change in vivo at 50 mg/kg in test [2] was -16%.

As for `O=C(N[C@@H]1c2ccc(O)cc2C[C@@H]1c1ccccc1)C(c1ccccc1)c1ccccc1` (relative stereo) [Example 3K], the “ACAT % Inhibition” value in test [1] is 54%. Besides, the change in vivo at 50 mg/kg in test [2] amounted to 0%.

Turning to `O=C(N[C@@H]1c2ccc(O)cc2CC[C@@H]1c1ccccc1)C(c1ccccc1)c1ccccc1` (relative stereo) [Example 3M], the “ACAT % Inhibition” value in test [1] was found to be 87%. Also, the change in vivo at 50 mg/kg in test [2] is -45%.

With `O=C(N[C@@H]1c2ccc(O)cc2CC[C@H]1c1ccccc1)C(c1ccccc1)c1ccccc1` (relative stereo) [Example 3N], the “ACAT % Inhibition” value in test [1] was 92%. Further, the change in vivo at 50 mg/kg in test [2] stood at 0%.

Take `O=C(N[C@@H]1c2cc(O)ccc2CC[C@@H]1c1ccccc1)C(c1ccccc1)c1ccccc1` (relative stereo) [Example 3P]: in test [1], the “ACAT % Inhibition” value amounted to 75%. For the same compound, the change in vivo at 50 mg/kg in test [2] worked out at 0%.

Consider `O=C(N[C@@H]1c2cc(O)ccc2CC[C@H]1c1ccccc1)C(c1ccccc1)c1ccccc1` (relative stereo) [Example 3Q], for which, in test [1], the “ACAT % Inhibition” value was found to be 94%. In addition, the change in vivo at 50 mg/kg in test [2] is -78%.

In the case of `O=C(N[C@@H]1c2cc(O)ccc2C[C@@H]1c1ccccc1)C(c1ccccc1)c1ccccc1` (relative stereo) [Example 3W], in test [1], the “ACAT % Inhibition” value is listed as 84%. Also, the change in vivo at 50 mg/kg in test [2] is 14%.

As to `CCCCCCCC/C=C\CCCCCCCC(=O)N[C@@H]1c2ccccc2CC[C@H]1c1ccc(O)cc1` (relative stereo) [Example 4, trans-N-[2-(4'-hydroxyphenyl)-1,2,3,4-tetrahydronaphth-1-yl]oleamide], the “ACAT % Inhibition” value in test [1] is on record as 94%. In addition, in test [2], the change in vivo at 50 mg/kg came out at 0%.

As for `CCCCCCCC/C=C\CCCCCCCC(=O)N[C@@H]1c2ccccc2CC[C@@H]1c1ccc(O)cc1` (relative stereo) [Example 4A], the “ACAT % Inhibition” value in test [1] worked out at 81%. Further, in test [2], the change in vivo at 50 mg/kg was determined as 0%.

For `Nc1cccc([C@H]2Cc3ccccc3[C@H]2NC(=O)C(c2ccccc2)c2ccccc2)c1` (relative stereo) [Example 5A, cis-N-[2-(3'-aminophenyl)indanyl]-α-phenylbenzeneacetamide], the “ACAT % Inhibition” value in test [1] was 95%. The change in vivo at 10 mg/kg in test [2] worked out at 0%.

As to `COc1ccc([C@H]2CCc3ccccc3[C@@H]2NC(=O)N(c2ccccc2)c2ccccc2)cc1` (relative stereo) [Example 6, trans-N'-[2-(4'-methoxyphenyl)-1,2,3,4-tetrahydronaphthalen-1-yl]-N,N-diphenylurea], in test [1], the “ACAT % Inhibition” value is on record as 97%. In addition, the change in vivo at 50 mg/kg in test [2] is -16%.

On to `O=C(N[C@@H]1c2ccccc2C[C@@H]1c1ccc(O)c(Cl)c1)C(c1ccccc1)c1ccccc1` (relative stereo) [Example 8, cis-N-[2-(3'-chloro-4'-hydroxyphenyl)indanyl]-α-phenylbenzeneacetamid], for which, in test [1], the “ACAT % Inhibition” value is 99%. Besides, the change in vivo at 50 mg/kg in test [2] is -40%.

For the compound `O=C(N[C@@H]1c2ccccc2C[C@@H]1c1cc(Cl)c(O)c(Cl)c1)C(c1ccccc1)c1ccccc1` (relative stereo) [Example 8A, cis-N-[2-(3',5'-dichloro-4'-hydroxyphenyl)indanyl]-α-phenylbenzeneacetamide], the “ACAT % Inhibition” value in test [1] is recorded as 99%. In test [2], the change in vivo at 50 mg/kg was -14%.

In the case of `O=C(N[C@@H]1c2ccccc2C[C@@H]1c1ccc(O)c(Br)c1)C(c1ccccc1)c1ccccc1` (single isomer, unassigned) [Example 7, (+)-cis-N-[2-(3'-bromo-4'-hydroxyphenyl]indanyl]-α-phenylbenzeneacetamide], in test [1], the “ACAT % Inhibition” value amounted to 100%. For the same compound, the change in vivo at 50 mg/kg in test [2] was -40%.

For the compound `Cc1cc([C@H]2Cc3ccccc3[C@H]2NC(=O)C(c2ccccc2)c2ccccc2)ccc1O` (single isomer, unassigned) [Example 9, (+)-cis-N-[2-(4'-hydroxy-3'-methylphenyl)indanyl]-α-phenylbenzeneacetamide], in test [1], the “ACAT % Inhibition” value came to 98%. In addition, the change in vivo at 50 mg/kg in test [2] is -66%.
